Data from ChEMBL document CHEMBL6182918, “Developing Dual-State Emission Berberine Derivatives as Theranostic Agents by Reducing Nonradiative Transition Pathways” (J Med Chem, 2025).
The source made the active and inactive calls. No cut-off for these calls is given here.

Columns and labels:
[1] = tested on: Staphylococcus aureus; experiment: Antibacterial activity against Staphylococcus aureus assessed as inhibition of bacterial growth by CLSI based broth microdilution method; type: functional
[2] = tested on: Staphylococcus aureus; experiment: Photodynamic antibacterial activity against Staphylococcus aureus ATCC 25923 assessed as reduction in colony forming units at 50 ug/ml preincubated for 5 mins in PBS followed by light irradiation for 5 to 20 mins and later cultured on LB agar plate for 18 hrs by plate-count method; type: functional, organism-based; settings: dose 50.0 µg/ml, time 1090-1105 min
[3] = tested on: Staphylococcus aureus; experiment: Photodynamic antibacterial activity against Staphylococcus aureus ATCC 25923 assessed as reduction in bacterial cell viability by measuring increase in PI-stained cells at 10 ug/ml preincubated for 5 mins in PBS followed by light irradiation for 20 mins by PI co-staining based fluorescence analysis; type: functional, organism-based; settings: dose 10.0 µg/ml, time 25.0 min
[4] = tested on: Staphylococcus aureus; experiment: Photodynamic antibacterial activity against Staphylococcus aureus ATCC 700699 assessed as reduction in colony forming units at 50 to 100 ug/ml preincubated for 5 mins in PBS followed by light irradiation for 20 mins and later cultured on LB agar plate for 18 hrs by plate-count method; type: functional, organism-based; settings: dose 50-100 µg/ml, time 1105.0 min
[5] = tested on: DNA; experiment: Binding affinity to Staphylococcus aureus DNA assessed as change in absorbance spectrum by absorbance based analysis; type: nucleic-acid assay
[6] = tested on: Staphylococcus aureus; experiment: Photodynamic antibacterial activity against Staphylococcus aureus infected in mouse assessed as reduction in pyosis in wounds at 50 ug/ml pretreated with compound followed by LED light irradiation for 30 mins and measured on day 1; type: functional, organism-based; settings: dose 50.0 µg/ml, time 1.0 day
[7] = Induction of ROS generation in aqueous solution assessed as hydroxyl radical generation (.OH) at 10 ug/ml pretreated with compound followed by light irradiation for 28 mins by fluorescence based analysis; type: functional; settings: dose 10.0 µg/ml
[8] = tested on: Staphylococcus aureus; experiment: Photodynamic antibacterial activity against Staphylococcus aureus ATCC 700699 assessed as reduction in colony forming units at 50 ug/ml preincubated for 5 mins in PBS followed by light irradiation for 20 mins and later cultured on LB agar plate for 18 hrs by plate-count method; type: functional, organism-based; settings: dose 50.0 µg/ml, time 1105.0 min
[9] = Induction of ROS generation in aqueous solution assessed as singlet oxygen generation (1O2) at 10 ug/ml pretreated with compound followed by light irradiation for 28 mins by fluorescence based analysis; type: functional; settings: dose 10.0 µg/ml
[10] = tested on: Staphylococcus aureus; experiment: Photodynamic antibacterial activity against Staphylococcus aureus ATCC 43300 assessed as reduction in colony forming units at 50 ug/ml preincubated for 5 mins in PBS followed by light irradiation for 20 mins and later cultured on LB agar plate for 18 hrs by plate-count method; type: functional, organism-based; settings: dose 50.0 µg/ml, time 1105.0 min
[11] = tested on: Staphylococcus aureus; experiment: Antibacterial activity against Staphylococcus aureus ATCC 25923 assessed as reduction in colony forming units at 50 ug/ml preincubated for 5 to 20 mins in PBS followed by culturing on LB agar plate for 18 hrs by plate-count method; type: functional, organism-based; settings: dose 50.0 µg/ml, time 1085-1100 min
[12] = tested on: Cell membrane; experiment: Disruption of inner cell membrane in Staphylococcus aureus assessed as increase in cell permeability by measuring increase in PI fluorescence intensity at 12.5 to 50 ug/ml measured after light irradiation by PI based fluorescence based analysis; type: subcellular; settings: dose 12.5-50 µg/ml
[13] = Drug uptake in Staphylococcus aureus ATCC 43300 measured after washing by absorbance based analysis; type: ADME
[14] = tested on: Escherichia coli; experiment: Photodynamic antibacterial activity against Escherichia coli EPEC assessed as reduction in colony forming units at 50 ug/ml preincubated for 5 mins in PBS followed by light irradiation for 20 mins and later cultured on LB agar plate for 18 hrs by plate-count method; type: functional, organism-based; settings: dose 50.0 µg/ml, time 1105.0 min
[15] = Drug uptake in Staphylococcus aureus ATCC 25923 measured after washing by absorbance based analysis; type: ADME
[16] = tested on: Staphylococcus aureus; experiment: Photodynamic antibacterial activity against Staphylococcus aureus ATCC 43300 assessed as reduction in colony forming units at 50 to 100 ug/ml preincubated for 5 mins in PBS followed by light irradiation for 20 mins and later cultured on LB agar plate for 18 hrs by plate-count method; type: functional, organism-based; settings: dose 50-100 µg/ml, time 1105.0 min
[17] = tested on: Staphylococcus aureus; experiment: Photodynamic antibacterial activity against Staphylococcus aureus ATCC 29213 assessed as reduction in colony forming units at 50 to 100 ug/ml preincubated for 5 mins in PBS followed by light irradiation for 20 mins and later cultured on LB agar plate for 18 hrs by plate-count method; type: functional, organism-based; settings: dose 50-100 µg/ml, time 1105.0 min
[18] = tested on: Staphylococcus aureus; experiment: Photodynamic antibacterial activity against Staphylococcus aureus ATCC 25923 assessed as log reduction in colony forming units at 50 ug/ml preincubated for 5 mins in PBS followed by light irradiation for 20 mins and later cultured on LB agar plate for 18 hrs by plate-count method; type: functional; settings: dose 50 µg/ml; time 1105 min; 18.42 h
[19] = Aqueous solubility of the compound relative to berberine; type: physicochemical; settings: buffer
[20] = tested on: Staphylococcus aureus; experiment: Photodynamic antibacterial activity against Staphylococcus aureus infected in mouse assessed as reduction in pyosis in wounds at 50 ug/ml pretreated with compound followed by LED light irradiation for 30 mins and measured on day 5; type: functional, organism-based; settings: dose 50.0 µg/ml, time 5.0 day
[21] = tested on: Cell membrane; experiment: Disruption of cell membrane in Staphylococcus aureus assessed as increase in membrane depolarization by measuring increase in fluorescence intensity measured after light irradiation by DiBAC4(3) based fluorescence analysis; type: subcellular; settings: dose 25-100 µg/ml
[22] = tested on: Staphylococcus aureus; experiment: Antibacterial activity against Staphylococcus aureus ATCC 25923 assessed as viable cells with tiny amount of PI emission at 10 ug/ml measured under dark conditions by PI co-staining based fluorescence analysis; type: functional, organism-based; settings: dose 10.0 µg/ml
[23] = tested on: Escherichia coli; experiment: Photodynamic antibacterial activity against Escherichia coli EHEC assessed as reduction in colony forming units at 50 ug/ml preincubated for 5 mins in PBS followed by light irradiation for 20 mins and later cultured on LB agar plate for 18 hrs by plate-count method; type: functional, organism-based; settings: dose 50.0 µg/ml, time 1105.0 min
[24] = Drug uptake in Escherichia coli assessed as increase in bacterial imaging at 10 ug/ml by laser scanning confocal microscopic analysis; type: ADME; settings: dose 10 µg/ml
[25] = tested on: Staphylococcus aureus; experiment: Photodynamic bactericidal activity against Staphylococcus aureus assessed as appearance of broken and shrunk bacterial cells at 50 ug/ml pretreated for 5 mins followed by light irradiation for 20 mins SEM analysis; type: functional, organism-based; settings: dose 50.0 µg/ml, time 25.0 min
[26] = tested on: Escherichia coli; experiment: Antibacterial activity against Escherichia coli assessed as inhibition of bacterial growth by CLSI based broth microdilution method; type: functional, organism-based
[27] = tested on: Staphylococcus aureus; experiment: Photodynamic antibacterial activity against Staphylococcus aureus infected in mouse assessed as reduction in pyosis in wounds at 50 ug/ml pretreated with compound followed by LED light irradiation for 30 mins and measured on day 3; type: functional, organism-based; settings: dose 50.0 µg/ml, time 3.0 day
[28] = tested on: Staphylococcus aureus; experiment: Photodynamic antibacterial activity against Staphylococcus aureus ATCC 25923 assessed as reduction in colony forming units at 50 to 100 ug/ml preincubated for 5 mins in PBS followed by light irradiation for 20 mins and later cultured on LB agar plate for 18 hrs by plate-count method; type: functional, organism-based; settings: dose 50-100 µg/ml, time 1105.0 min
[29] = Drug uptake in Escherichia coli EHEC measured after washing by absorbance based analysis; type: ADME
[30] = tested on: Staphylococcus aureus; experiment: Photodynamic antibacterial activity against Staphylococcus aureus ATCC 29213 assessed as reduction in colony forming units at 50 ug/ml preincubated for 5 mins in PBS followed by light irradiation for 20 mins and later cultured on LB agar plate for 18 hrs by plate-count method; type: functional, organism-based; settings: dose 50.0 µg/ml, time 1105.0 min
[31] = tested on: Cell membrane; experiment: Binding affinity to cell membrane in Staphylococcus aureus assessed as membrane potential collapse at 25 to 50 ug/ml by measuring increase in fluorescence intensity measured after light irradiation by Rhodamine123 staining based fluorescence analysis; type: subcellular; settings: dose 25-50 µg/ml
[32] = tested on: DNA; experiment: Binding affinity to Staphylococcus aureus DNA assessed as induction of genomic DNA degradation measured after 20 mins of light irradiation by absorbance based analysis; type: nucleic-acid assay; settings: dose 12.5-100 µg/ml
[33] = Drug uptake in Staphylococcus aureus assessed as increase in bacterial imaging at 10 ug/ml by laser scanning confocal microscopic analysis; type: ADME; settings: dose 10 µg/ml
[34] = Stability of the compound in the solution assessed as fluorescence intensity measured after 28 mins of light exposure by fluorescence based analysis; type: physicochemical; settings: read-out: Stability
[35] = tested on: Staphylococcus aureus; experiment: Photodynamic antibacterial activity against Staphylococcus aureus infected in mouse assessed as reduction in bacterial count in wounds at 50 ug/ml pretreated with compound followed by LED light irradiation for 30 mins and on day 5 the infected tissue harvested and cultured on LB agar plate and measured after 24 hrs by plate count method; type: functional, organism-based; settings: dose 50.0 µg/ml, time 6.0 day
[36] = tested on: Cell membrane; experiment: Binding affinity to cell membrane in Staphylococcus aureus assessed as membrane potential collapse at 25 to 100 ug/ml by measuring increase in fluorescence intensity measured under dark conditions by Rhodamine123 staining based fluorescence analysis; type: subcellular; settings: dose 25-100 µg/ml
[37] = tested on: Staphylococcus aureus; experiment: Antibacterial activity against Staphylococcus aureus ATCC 29213 assessed as inhibition of bacterial growth by CLSI based broth microdilution method; type: functional, organism-based
[38] = tested on: Staphylococcus aureus; experiment: Photodynamic antibacterial activity against Staphylococcus aureus infected in mouse assessed as reduction in neutrophils content in wounds at 50 ug/ml and measured on day 3 by Hematoxylin-Eosin staining based analysis; type: functional, organism-based; settings: dose 50.0 µg/ml, time 3.0 day
[39] = tested on: Staphylococcus aureus; experiment: Antibacterial activity against Staphylococcus aureus infected in mouse assessed as reduction in pyosis in wounds at 50 ug/ml measured on day 1; type: functional, organism-based; settings: dose 50.0 µg/ml, time 1.0 day

COc1ccc2c(c1)CC[n+]1cc3c(OC)cccc3cc1-2.[Cl-]
MIC [1]: 50 µg/mL | Activity [2]: Time-dependent-effect | Activity [3]: Active | Activity [4]: Dose-dependent-effect | Activity [5]: Active | Activity [6]: Active | Activity [7]: Active | Activity [8]: Active; Higher Activity Compared To Bbr And Mb But Lower Activity Compared To Ce6 | Activity [9]: Active | Activity [10]: Active; Higher Activity Compared To Bbr And Mb But Lower Activity Compared To Ce6 | Activity [11]: inactive | Activity [12]: Dose-dependent-effect | Drug uptake [13]: Not_active | Activity [14]: Active | Drug uptake [15]: Active | Activity [16]: Dose-dependent-effect | Activity [17]: Dose-dependent-effect | Activity [18]: ~5 log10CFU/ml | fold change (FC) [19]: ~ 10 | Activity [20]: Active; Favourable Wound Healing Status Observed | Activity [21]: Dose-dependent-effect | Activity [22]: inactive | Activity [23]: inactive | Drug uptake [24]: Active | Activity [25]: Active | Activity [26]: Active; Activity Against Escherichia Coli Is Lower Than Staphylococcus Aureus | Activity [27]: Active; Pyosis Nearly Disappeared | Activity [28]: Dose-dependent-effect | Drug uptake [29]: Not_active | Activity [30]: Active; Higher Activity Compared To Bbr And Mb But Lower Activity Compared To Ce6 | Activity [31]: Active | Activity [32]: Dose-dependent-effect | Drug uptake [33]: Active | remaining at 28 min [34]: ~90% | Activity [35]: Active | Activity [36]: Active

COc1ccc2c(c1)CC[n+]1cc3cc4c(cc3cc1-2)OCO4
Activity [7]: Active | Activity [9]: Active

CCCCN1C(=O)C(=C/C=C/C2C(=O)N(CCCC)C(=O)N(CCCC)C2=O)C(=O)N(CCCC)C1=O
remaining at 28 min [34]: 40%

COc1ccc2c(c1)CC[n+]1cc3c4c(ccc3cc1-2)OCO4
Activity [7]: inactive | Activity [9]: inactive

COc1cccc2cc3[n+](cc12)CCc1cc2c(cc1-3)OCO2.[Cl-]
Activity [11]: inactive | Activity [37]: Active | Activity [18]: 4 log10CFU/ml

COc1ccc2c(c1)CC[n+]1cc3ccccc3cc1-2
Activity [7]: inactive | Activity [9]: inactive

COc1ccc2c(c1)CC[n+]1cc3cc(OC)ccc3cc1-2.[Cl-]
Activity [1]: Active | Activity [2]: Time-dependent-effect | Activity [7]: Active | Activity [9]: Active | Activity [11]: inactive | Activity [18]: 4.5 log10CFU/ml | fold change (FC) [19]: ~ 10 | Activity [23]: inactive | Activity [26]: Active; Activity Against Escherichia Coli Is Lower Than Staphylococcus Aureus

COc1ccc2cc3[n+](cc2c1OC)CCc1cc2c(cc1-3)OCO2.[Cl-] [BERBERINE CHLORIDE]
Activity [6]: inactive | Activity [18]: 2 log10CFU/ml | Activity [38]: inactive | remaining at 28 min [34]: 60% | Activity [35]: Active | Activity [39]: inactive
